Tested on: Th1 (IL-2, IFN-γ, TNF alpha) and Th2 (IL-4, IL-5, IL-10) cytokines
Test: Th1 & Th2 cytokines in lymph node cells of HBsAg immunized mice by flowcytometry
Format: in vivo
Conditions: adjuvant containing HBsAg; immunized mice day 28, flowcytometry
Text: Cytokines (Th1 & Th2 responses) in serum by ELISA (Quantikine, R & D systems) and lymph node cells by flowcytometry collected from immunized mice on day 28th (Quantikine, optia Kit).
High levels of Th1 cytokines were secreted in response to MDP and FCA containing HBsAg.

SMILES: CC(=O)N[C@H]1C(O)O[C@H](CO)[C@@H](O)[C@@H]1O[C@H](C)C(=O)N[C@@H](C)C(=O)N[C@H](CCC(=O)O)C(N)=O (mixture of isomers) [MDP, Muramyl dipeptide]
- Th1 and Th2 cytokines in lymph nodes cell culture fluid: very low for the Th2 cytokines and increased Th1 type of immune response

— patent publication US20070275006A1, “IRIDOID GLYCOSIDE COMPOSITION” (priority 2006, published 2007)
